Test results published in patent US20050049241A1, “Pyridyl piperazinyl ureas” (priority 2003, published 2005).
One block for each compound: values may come before it.

Experiments:
VR1 [1] = target: T1, VR1 (Homo sapiens, UniProt Q8NER1); assay: Functional assay: block of capsaicin-induced Ca2+ influx (FLIPR, hVR1/HEK293 cells); assay type: cell-based; set-up: expressed in transfected cells; host or cells: HEK293
Method: Functional assay: block of capsaicin-induced Ca^2+ influx
The contents of the wells were mixed 3 times (40 μL mix volume) immediately after the additions were made.

guinea pigs = settings: cough induced by capsaicin and citric acid; cited from earlier work
guinea pig pain models = settings: guinea pig models of inflammatory and neuropathic pain; cited from earlier work
VR1 [2] = target: T1, VR1; assay: [3H] Resiniferatoxin binding assay on cell membranes; set-up: expressed in transfected cells; inferred to be hVR1/HEK293; settings: [3H] RTX displacement, 37° C. 60 min

T1 sequence (Q8NER1 whole entry): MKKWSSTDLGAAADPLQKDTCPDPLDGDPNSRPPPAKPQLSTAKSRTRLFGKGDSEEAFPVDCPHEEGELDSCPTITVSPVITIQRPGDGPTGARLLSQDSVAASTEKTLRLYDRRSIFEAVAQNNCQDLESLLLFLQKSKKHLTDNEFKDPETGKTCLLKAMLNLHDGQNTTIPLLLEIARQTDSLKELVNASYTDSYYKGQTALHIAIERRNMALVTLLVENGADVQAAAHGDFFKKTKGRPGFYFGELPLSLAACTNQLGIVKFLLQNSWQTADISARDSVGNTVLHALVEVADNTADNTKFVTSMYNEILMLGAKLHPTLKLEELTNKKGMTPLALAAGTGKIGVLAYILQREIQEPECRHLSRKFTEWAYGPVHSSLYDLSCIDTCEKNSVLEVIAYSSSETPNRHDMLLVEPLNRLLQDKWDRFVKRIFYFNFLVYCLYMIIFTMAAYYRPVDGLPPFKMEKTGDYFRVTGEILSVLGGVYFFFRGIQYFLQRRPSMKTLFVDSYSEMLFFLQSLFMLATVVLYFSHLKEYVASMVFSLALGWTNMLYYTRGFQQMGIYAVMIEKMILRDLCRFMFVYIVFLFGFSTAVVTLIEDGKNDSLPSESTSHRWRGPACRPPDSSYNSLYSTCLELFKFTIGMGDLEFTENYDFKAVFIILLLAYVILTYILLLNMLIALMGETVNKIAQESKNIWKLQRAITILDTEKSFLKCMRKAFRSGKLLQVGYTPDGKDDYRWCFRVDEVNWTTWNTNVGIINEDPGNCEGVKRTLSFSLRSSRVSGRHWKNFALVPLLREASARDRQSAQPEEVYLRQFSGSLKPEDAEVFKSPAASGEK

capsaicin concentration at ~EC80 (VR1 [1]; agonist, human recombinant VR1 in hVR1/HEK293): ~15 nM
Compound: COc1cc(CNC(=O)CCCC/C=C/C(C)C)ccc1O [capsaicin]

Compound: Oc1cc2c(cc1O)CN(C(=S)NCCc1ccc(Cl)cc1)CCC2 [Capsazepine]
inhibition of cough (guinea pigs): inhibits cough induced by capsaicin and citric acid | reversal of mechanical hyperalgesia (guinea pig pain models): reverses mechanical hyperalgesia

Compound: O=C(Nc1ccc(C(F)(F)F)cn1)N1CCN(c2ncccc2Cl)CC1 [Comparative A, 4-(3-chloro-pyridin-2-yl)-piperazine-1-carboxylic acid (5-trifluoromethyl-pyridin-2-yl)-amide]
IC50 (VR1 [1]; block of Ca2+ influx induced by 15 nM capsaicin, hVR1/HEK293, 3 and 60 min incubation data combined): 120 nM | Ki (VR1 [2]): 1020 nM
